Target mRNA inhibition data for 34 sequences are collected here from the OligoGym collection.

Several values for one entry are separate records, joined by “and”; a condition that tells them apart may be missing. Equal values may be shown once. After the bases stand the sugars from the 5' end (letter, count) and the backbone: PS all phosphorothioate, else s phosphorothioate and o phosphodiester by linkage. Methylation of C is not given here. l = locked nucleic acid (LNA); d = 2'-deoxy (DNA)

One data set concerns the target ANGPTL2. Particulars: ASO.
A further data set concerns the target MYH7. The following applies: ASO, CC-2580, 5 µM.

Consider CTCCAAATTAAATCCG (sugars l4 d9 l3, PS), for which the target mRNA inhibition with ANGPTL2 (5 µM) worked out at 22.4%; with ANGPTL2 (25 µM), 32.3%.

Take “CTGGAAAGAAGGGGCTGTG (sugars l1 d16 l2, PS)”: the target mRNA inhibition with ANGPTL2 (5 µM) was 38.8%; with ANGPTL2 (25 µM) it was 30.4%.

On to “CTGGGTTATATTCTCTT (sugars l2 d12 l3, PS)”, for which the target mRNA inhibition turned out to be 39.4% with ANGPTL2 (5 µM) and 43.5% in the data set with ANGPTL2 (25 µM).

Consider “CTGGTTGATGATGCGGTT (sugars l1 d15 l2, PS)”, for which the target mRNA inhibition with ANGPTL2 (5 µM) was determined as 56%; with ANGPTL2 (25 µM), 66%.

For the sequence “CTTGGCAATGATCTCATCC (sugars l1 d11 l1 d2 l4, PS)”, in the data set with MYH7, the target mRNA inhibition is 54% and 33%.

Turning to “CTTGGCAATGATCTCATCC (sugars l3 d10 l1 d2 l3, PS)”, the target mRNA inhibition with MYH7 was 80% and 64%.

As for “CTTGGCAATGATCTCATCC (sugars l3 d11 l1 d1 l3, PS)”, in the data set with MYH7, the target mRNA inhibition is 85% and 74%.

As for “CTTGGCAATGATCTCATCC (sugars ldddddddldddlddldll, PS)”, the target mRNA inhibition with MYH7 was 50% and 34%.

Regarding “CTTGGCAATGATCTCATCC (sugars ldddddddlddlddlddll, PS)”, in the data set with MYH7, the target mRNA inhibition was 44% and 27%.

Turning to “CTTGGCAATGATCTCATCC (sugars ldddddddldlddldldll, PS)”, the target mRNA inhibition in the data set with MYH7 is 22% and 4%.

Turning to “CTTGGCAATGATCTCATCC (sugars lddddddllddlddlddll, PS)”, the target mRNA inhibition with MYH7 is 26% and 5%.

With “CTTGGCAATGATCTCATCC (sugars ldddldddddldlddddll, PS)”, the target mRNA inhibition with MYH7 is 12% and 1%.

As for “GAAGAAAAGAGCACATGG (sugars l3 d11 l4, PS)”, the target mRNA inhibition in the data set with ANGPTL2 (5 µM) came out at 33.2%; with ANGPTL2 (25 µM) it was 9.98%.

“GCCAACACTAACTCGGC (sugars l1 d14 l2, PS)”: the target mRNA inhibition was 30.6% with ANGPTL2 (5 µM) and 31.4% with ANGPTL2 (25 µM).

On to GCTCCGGTAATGGCCC (sugars l1 d12 l3, PS), for which the results for the target mRNA inhibition with ANGPTL2 (5 µM) and in the data set with ANGPTL2 (25 µM) were 25.9% and 29.2%, respectively.

Consider GCTCTCATAATCCTAC (sugars l2 d11 l3, PS), for which the values for the target mRNA inhibition with ANGPTL2 (5 µM) and in the data set with ANGPTL2 (25 µM) were 59.2% and 65.4%, respectively.

For “GTCATAGAAACTACCCC (sugars l1 d13 l3, PS)”, the target mRNA inhibition was found to be 29.1% with ANGPTL2 (5 µM) and 68.1% with ANGPTL2 (25 µM).

Regarding “GTGGGCAAGAGGGATGC (sugars l1 d14 l2, PS)”, the target mRNA inhibition was determined as 35% in the data set with ANGPTL2 (5 µM) and 32.2% with ANGPTL2 (25 µM).

Take “GTTATGCCCATTTCTAGG (sugars l1 d15 l2, PS)”: the target mRNA inhibition in the data set with ANGPTL2 (5 µM) was found to be 47.7%; with ANGPTL2 (25 µM), 58.8%.

On to GTTCGTCAGCCAGTAA (sugars l2 d11 l3, PS), for which the target mRNA inhibition with ANGPTL2 (5 µM) amounted to 46.5%; with ANGPTL2 (25 µM), 75.5%.

For “GTTGATAGTTTATCTCC (sugars l3 d12 l2, PS)”, the results for the target mRNA inhibition with ANGPTL2 (5 µM) and with ANGPTL2 (25 µM) were 87.4% and 88.8%, respectively.

Turning to “GTTGATAGTTTATCTCCT (sugars l1 d14 l3, PS)”, the target mRNA inhibition turned out to be 64.1% in the data set with ANGPTL2 (5 µM) and 76.7% in the data set with ANGPTL2 (25 µM).

Take “GTTGATGATGCGGTTGTAG (sugars l1 d16 l2, PS)”: the target mRNA inhibition was found to be 22.9% with ANGPTL2 (5 µM) and 34% with ANGPTL2 (25 µM).

As for “TAATAGGCACACACCCAGAC (sugars l1 d17 l2, PS)”, the target mRNA inhibition with ANGPTL2 (5 µM) amounted to 27.2%; with ANGPTL2 (25 µM) it was 43.3%.

For “TAATGGCTGAGATGCAG (sugars l4 d11 l2, PS)”, the target mRNA inhibition with ANGPTL2 (5 µM) came to 36%; with ANGPTL2 (25 µM) it was 52.6%.

Regarding “TAATTCACCGCCAAATTAC (sugars l3 d13 l3, PS)”, the results for the target mRNA inhibition with ANGPTL2 (5 µM) and in the data set with ANGPTL2 (25 µM) were 27.6% and 36.8%, respectively.

For TCCGGTAATGGCCCC (sugars l1 d12 l2, PS), the target mRNA inhibition with ANGPTL2 (5 µM) worked out at 34%; with ANGPTL2 (25 µM), 51.8%.

As for “TGTTTGGAAATGTTATCT (sugars l3 d11 l4, PS)”, the target mRNA inhibition was 80.9% in the data set with ANGPTL2 (5 µM) and 87.1% with ANGPTL2 (25 µM).

In the case of “TTAGTGGAAGGTGTTGG (sugars l3 d12 l2, PS)”, the target mRNA inhibition in the data set with ANGPTL2 (5 µM) was determined as 51.1%; with ANGPTL2 (25 µM) it was 62.8%.

Consider “TTATGCACTCGGTTCTCC (sugars l1 d15 l2, PS)”, for which the results for the target mRNA inhibition with ANGPTL2 (5 µM) and in the data set with ANGPTL2 (25 µM) were 30.6% and 46.6%, respectively.

For the sequence “TTGATGATGCGGTTGTA (sugars l3 d12 l2, PS)”, the target mRNA inhibition with ANGPTL2 (5 µM) was 76.5%; with ANGPTL2 (25 µM) it was 83.1%.

For “TTGATGATGCGGTTGTAG (sugars l3 d13 l2, PS)”, the target mRNA inhibition in the data set with ANGPTL2 (5 µM) was 70.7%; in the data set with ANGPTL2 (25 µM), 77.8%.

Regarding TTGGTTCGTCAGCCAG (sugars l1 d12 l3, PS), the target mRNA inhibition with ANGPTL2 (5 µM) was determined as 49.1%; with ANGPTL2 (25 µM) it was 65%.

In the case of “TTTCTAAACTCTCACCCTG (sugars l1 d15 l3, PS)”, the figures for the target mRNA inhibition with ANGPTL2 (5 µM) and with ANGPTL2 (25 µM) were 26.4% and 25.1%, respectively.
